# Measured values taken from patent US7009088B1, “Methods of modulating auxin production in plants” (priority 2000, dated 2006).
# Assays:
# [1] = biological target: T1, NIT1 (Arabidopsis thaliana, UniProt P32961); conditions: cited from earlier work
# T1 sequence (P32961 1-346): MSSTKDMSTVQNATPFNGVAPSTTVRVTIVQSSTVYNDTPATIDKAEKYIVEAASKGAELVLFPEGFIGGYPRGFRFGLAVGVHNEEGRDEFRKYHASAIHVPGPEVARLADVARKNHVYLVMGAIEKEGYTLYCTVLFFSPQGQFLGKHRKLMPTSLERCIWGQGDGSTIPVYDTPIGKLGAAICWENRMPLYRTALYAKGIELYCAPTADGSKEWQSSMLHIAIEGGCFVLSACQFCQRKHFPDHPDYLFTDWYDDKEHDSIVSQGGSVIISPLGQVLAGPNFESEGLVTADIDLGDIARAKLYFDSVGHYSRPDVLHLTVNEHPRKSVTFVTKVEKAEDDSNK
# [2] = biological target: T2, NIT2 (Arabidopsis thaliana, UniProt P32962); conditions: cited from earlier work
# T2 sequence (P32962 1-339): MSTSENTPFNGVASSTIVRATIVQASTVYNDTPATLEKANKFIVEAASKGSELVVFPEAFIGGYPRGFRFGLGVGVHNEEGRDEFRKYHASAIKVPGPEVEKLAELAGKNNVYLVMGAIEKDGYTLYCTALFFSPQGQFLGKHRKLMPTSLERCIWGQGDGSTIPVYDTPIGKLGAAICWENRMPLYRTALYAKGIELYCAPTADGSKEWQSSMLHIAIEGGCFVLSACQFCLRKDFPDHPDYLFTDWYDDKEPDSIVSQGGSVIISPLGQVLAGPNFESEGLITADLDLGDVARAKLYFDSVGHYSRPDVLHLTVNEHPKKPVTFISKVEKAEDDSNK
# [3] = system: Arabidopsis seedlings; assay: Seedling growth on media supplemented with IAN (auxin phenotype); format: in vivo
# Text: Four nitrilases, differentially expressed during development and in response to environmental cues, catalyze hydrolysis of IAN to IAA in Arabidopsis (Bartel and Fink (1994) Proc. Natl. Acad. Sci. USA 91:6649–6653). The nitl mutant is insensitive to the auxin effects of exogenously applied […] at the seedling stage (Normanly et al. (1997) Plant Cell 9:1781–1790). In accordance with the observed insensitivity of nit1 seedlings to IAN, NIT1 is most strongly expressed in the hypocotyl near the junction with the root in young seedlings as well as in the cotyledons. In contrast, NIT2 and NIT3 are expressed primarily in the cotyledons and NIT4 is expressed in the root tip (Bartel and Fink (1994) Proc. Natl. Acad. Sci. USA 91:6649–6653).
# [4] = biological target: T3, CYP83B1 (Arabidopsis thaliana, UniProt O65782); assay: CYP83B1 catalysis of [5-3H]indole-3-acetaldoxime metabolism in yeast microsomes
# T3 sequence (O65782 1-499): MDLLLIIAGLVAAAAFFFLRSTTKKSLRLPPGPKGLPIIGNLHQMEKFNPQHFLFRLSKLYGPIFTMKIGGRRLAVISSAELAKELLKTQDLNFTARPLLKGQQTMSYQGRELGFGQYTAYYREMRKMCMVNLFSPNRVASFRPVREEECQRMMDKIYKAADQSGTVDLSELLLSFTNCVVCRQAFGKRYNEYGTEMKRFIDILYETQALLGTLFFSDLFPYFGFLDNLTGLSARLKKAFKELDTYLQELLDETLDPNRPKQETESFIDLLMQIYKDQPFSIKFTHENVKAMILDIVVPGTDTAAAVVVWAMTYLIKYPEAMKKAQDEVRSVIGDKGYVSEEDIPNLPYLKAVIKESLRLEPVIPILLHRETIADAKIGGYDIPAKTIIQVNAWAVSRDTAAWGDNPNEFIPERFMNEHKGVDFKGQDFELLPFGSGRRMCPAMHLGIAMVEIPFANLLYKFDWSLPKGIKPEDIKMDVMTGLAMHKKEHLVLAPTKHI
# Description: (§1) FIG. 3. (A) Analysis of CYP83B1 by optical difference spectroscopy. […] After incubation for 10 min at 28° C. reaction mixtures were extracted with ethylacetate and analyzed by TLC. (s) substrate, (p) product.
# After incubation, reaction mixtures were stopped by adding SDS to 0.4% and were analyzed by thin layer chromatography (TLC). TLC plates were developed in chloroform/methanol/water (85:14:1) and radioactive bands visualized by autoradiography.
# Reactions were stopped and extracted with ethylacetate. Aliquots of the substrate-containing ethylacetate phase and product-containing water phase were subjected to liquid scintillation counting.
# [5] = biological target: T3, CYP83B1; assay: Optical difference (binding) spectroscopy of yeast microsomes containing CYP83B1
# Description: as §1
# [6] = system: wild type seedlings; assay: Indole glucosinolate levels in seedlings grown on MS agar, quantified as SCN; format: in vivo, Arabidopsis; conditions: wild type seedlings germinated on MS media with 100 μM compound, two week old, versus wild type
# Description: FIG. 6. Indole glucosinolate levels are affected by CYP83B1 expression. Indole glucosinolates in individual two week old seedlings grown on MS agar were quantified calorimetrically as SCN. 1) Wild type, 2) rnt1-1, 3) molecularly complemented line 3.25.11, 4) overexpression line 1.4.7, and 5) wild type grown on 100 μM tryptamine. Data are represented as the mean±S.E, (n=10 seedlings). Except for the molecularly complemented line 3.25.11, mean indole glucosinolate values all differ from wild type seedling values at a 1% confidence value (t-test).
# Tryptophan-derived indole-3-acetaldoxime is also an intermediate in the biosynthesis of indole glucosinolates.
SMILES,Km for IAN hydrolysis [1],Km for IAN hydrolysis [2],effect on germination / IAA phenotype ([3]; rnt1-1 seedlings on 50 μM),seedling phenotype ([3]; wild type seedlings on media supplemented with 50 μM),"turnover ([4]; in the presence of cysteine, 2.2 nM CYP83B1, 1 min at 28° C.) [min⁻¹]","Km ([4]; read-out: Michaelis-Menten constant Km, in the presence of cysteine, 2.2 nM CYP83B1, 1 min at 28° C.) [µM]",Kd [5] [µM],"inhibition of indole-3-acetaldoxime oxidation ([4]; 17.5 mM tryptamine, 35 μM [5-3H]indole-3-acetaldoxime, 22 nM CYP83B1, 10 min at 28° C., TLC)",indole glucosinolate levels [6]
"N#CCc1c[nH]c2ccccc12 [IAN, indole-3-acetonitrile]",in the mM range,in the mM range,almost completely inhibiting germination,phenocopy rnt1-1 seedlings,–,–,–,–,–
ON=CCc1c[nH]c2ccccc12 [indole-3-acetaldoxime],–,–,–,–,53,3,0.2,–,–
NCCc1c[nH]c2ccccc12 [tryptamine],–,–,–,–,–,–,24,inhibitor,reduced levels
